pIC50: −log10 of the molar value. Each block holds one molecule with its values, some of them ahead of it. Calls of active or inactive are those of the source. The calls are words filed in the database; no cut-off is given here.
Key:
[1] = tested on: HeLa; test: Antiproliferative activity against human HeLa cells after 24 hrs by crystal violet staining-based assay; format: functional, cell-based
[2] = (§1) Antiproliferative activity against human ViBo cells after 24 hrs by crystal violet staining-based assay; format: functional, cell-based
[3] = organism: Homo sapiens; test: as §1; format: functional, cell-based
[4] = tested on: Ca-Ski; test: Cytotoxicity against human CaSki cells assessed as induction of necrosis at antiproliferative IC50 after 24 hrs by LDH release assay relative to control; format: cell-based
[5] = Cytotoxicity against human ViBo cells assessed as induction of necrosis at antiproliferative IC50 after 24 hrs by LDH release assay relative to control; format: cell-based
[6] = tested on: Ca-Ski; test: Antiproliferative activity against human CaSki cells after 24 hrs by crystal violet staining-based assay; format: functional, cell-based
[7] = tested on: HeLa; test: Cytotoxicity against human HeLa cells assessed as induction of necrosis at antiproliferative IC50 after 24 hrs by LDH release assay relative to control; format: cell-based
[8] = Induction of apoptosis in human ViBo cells assessed as caspase3 activity at antiproliferative IC50 after 24 hrs by FITC staining-based FACS analysis (reference value: 5%); format: functional
[9] = tested on: HeLa; test: Induction of apoptosis in human HeLa cells assessed as caspase3 activity at antiproliferative IC50 after 24 hrs by FITC staining-based FACS analysis (reference value: 3%); format: functional
[10] = tested on: Ca-Ski; test: Induction of apoptosis in human CaSki cells assessed as caspase3 activity at antiproliferative IC50 after 24 hrs by FITC staining-based FACS analysis (reference value: 5%); format: functional
[11] = organism: Homo sapiens; test: Induction of apoptosis in human ViBo cells assessed as chromatin condensation at antiproliferative IC50 by DAPI staining-based epifluorescence microscopic analysis; format: functional, cell-based
[12] = tested on: Ca-Ski; test: Cell cycle analysis in human CaSki cells assessed as accumulation of cells at S phase at antiproliferative IC50 after 24 hrs by propidium iodide staining-based flow cytometric analysis (reference value: 10.12%); format: functional
[13] = tested on: Ca-Ski; test: Induction of apoptosis in human CaSki cells assessed as chromatin condensation at antiproliferative IC50 by DAPI staining-based epifluorescence microscopic analysis; format: functional, cell-based
[14] = tested on: HeLa; test: Induction of apoptosis in human HeLa cells assessed as chromatin condensation at antiproliferative IC50 by DAPI staining-based epifluorescence microscopic analysis; format: functional, cell-based
[15] = tested on: Lymphocyte; test: Cytotoxicity in enriched human lymphocytes assessed as induction of necrosis by measuring LDH release at 0.99 uM after 72 hrs by LDH release assay; format: cell-based
[16] = organism: Homo sapiens; test: Induction of apoptosis in human ViBo cells assessed as caspase3 activation at antiproliferative IC50 after 24 hrs by FITC/DAPI staining-based fluorescence microscopic analysis; format: functional, cell-based
[17] = tested on: HeLa; test: Cell cycle analysis in human HeLa cells assessed as accumulation of cells at S phase at antiproliferative IC50 after 24 hrs by propidium iodide staining-based flow cytometric analysis (reference value: 10.37%); format: functional
[18] = tested on: HeLa; test: Cell cycle analysis in human HeLa cells assessed as accumulation of cells at G1 phase at antiproliferative IC50 after 24 hrs by propidium iodide staining-based flow cytometric analysis (reference value: 69.25%); format: functional
[19] = Cell cycle analysis in human ViBo cells assessed as accumulation of cells at S phase at antiproliferative IC50 after 24 hrs by propidium iodide staining-based flow cytometric analysis (reference value: 11.67%); format: functional
[20] = tested on: Ca-Ski; test: Cell cycle analysis in human CaSki cells assessed as accumulation of cells at G1 phase at antiproliferative IC50 after 24 hrs by propidium iodide staining-based flow cytometric analysis (reference value: 69.31%); format: functional
[21] = tested on: Lymphocyte; test: Cytotoxicity in enriched human lymphocytes assessed as induction of necrosis by measuring LDH release at 0.73 uM after 72 hrs by LDH release assay; format: cell-based
[22] = tested on: Lymphocyte; test: Induction of cell proliferation of enriched human lymphocytes assessed as cell proliferation level at 2.36 uM after 72 hrs by CFSE staining-based flow cytometric analysis (reference value: 73.36%)
[23] = tested on: Lymphocyte; test: Induction of cell proliferation of enriched human lymphocytes assessed as cell proliferation level at 0.73 uM after 72 hrs by CFSE staining-based flow cytometric analysis (reference value: 73.36%)
[24] = tested on: Lymphocyte; test: Cytotoxicity in enriched human lymphocytes assessed as induction of necrosis by measuring LDH release at 2.36 uM after 72 hrs by LDH release assay; format: cell-based
[25] = tested on: HeLa; test: Induction of apoptosis in human HeLa cells assessed as caspase3 activation at antiproliferative IC50 after 24 hrs by FITC/DAPI staining-based fluorescence microscopic analysis; format: functional, cell-based
[26] = Cell cycle analysis in human ViBo cells assessed as accumulation of cells at G1 phase at antiproliferative IC50 after 24 hrs by propidium iodide staining-based flow cytometric analysis (reference value: 66.69%); format: functional
[27] = tested on: HeLa; test: Induction of apoptosis in human HeLa cells assessed as formation of apoptotic bodies at antiproliferative IC50 by DAPI staining-based epifluorescence microscopic analysis; format: functional, cell-based
[28] = Cell cycle analysis in human ViBo cells assessed as accumulation of cells at G2/M phase at antiproliferative IC50 after 24 hrs by propidium iodide staining-based flow cytometric analysis (reference value: 16.20%); format: functional
[29] = organism: Homo sapiens; test: Induction of apoptosis in human ViBo cells assessed as formation of apoptotic bodies at antiproliferative IC50 by DAPI staining-based epifluorescence microscopic analysis; format: functional, cell-based
[30] = tested on: HeLa; test: Cell cycle analysis in human HeLa cells assessed as accumulation of cells at G2/M phase at antiproliferative IC50 after 24 hrs by propidium iodide staining-based flow cytometric analysis (reference value: 17.19%); format: functional
[31] = tested on: Ca-Ski; test: Induction of apoptosis in human CaSki cells assessed as caspase3 activation at antiproliferative IC50 after 24 hrs by FITC/DAPI staining-based fluorescence microscopic analysis; format: functional, cell-based
[32] = tested on: Ca-Ski; test: Cell cycle analysis in human CaSki cells assessed as accumulation of cells at G2/M phase at antiproliferative IC50 after 24 hrs by propidium iodide staining-based flow cytometric analysis (reference value: 16.59%); format: functional
[33] = tested on: Ca-Ski; test: Induction of apoptosis in human CaSki cells assessed as formation of apoptotic bodies at antiproliferative IC50 by DAPI staining-based epifluorescence microscopic analysis; format: functional, cell-based
[34] = tested on: Lymphocyte; test: Induction of cell proliferation of enriched human lymphocytes assessed as cell proliferation level at 0.99 uM after 72 hrs by CFSE staining-based flow cytometric analysis (reference value: 73.36%)

SMILES: CC[C@@]1(O)C(=O)OCc2c1cc1n(c2=O)Cc2cc3ccccc3nc2-1 [CAMPTOTHECIN]
Activity [8]: 48%
pIC50 [1]: 6.03
pIC50 [2]: 5.72
Activity [9]: 29%
Activity [4]: 2%
Activity [10]: 62%
Activity [5]: 0%
pIC50 [6]: 5.74
Activity [7]: 3%

SMILES: CC(C)(C)OC(=O)N1C[C@@H]2C[C@H]1CN2C(=S)SC(C[N+](=O)[O-])c1ccccc1 (stereo partly drawn)
Activity [8]: 35%
Activity [11]: Active
Activity [12]: 10.49%
Activity [1]: Dose-dependent effect
pIC50 [1]: 6.00
Activity [13]: Active
Activity [14]: Active
Activity [15]: Non-Toxic
pIC50 [2]: 6.14
Activity [3]: Dose-dependent effect
Activity [9]: 36%
Activity [16]: Active
Activity [17]: 10.68%
Activity [4]: 2%
Activity [18]: 70.26%
Activity [10]: 42%
Activity [19]: 10.05%
Activity [20]: 72.29%
Activity [21]: Non-Toxic
Activity [22]: 7.44%
Activity [5]: 0%
Activity [23]: 64.02%
Activity [24]: Non-Toxic
Activity [25]: Active
Activity [26]: 64.38%
Activity [6]: Dose-dependent effect
pIC50 [6]: 5.63
Activity [27]: Active
Activity [28]: 20.48%
Activity [29]: Active
Activity [30]: 16.01%
Activity [7]: 3%
Activity [31]: Active
Activity [32]: 14.35%
Activity [33]: Active
Activity [34]: 62.38%

SMILES: CC(=O)O[C@H]1C(=O)[C@@]2(C)[C@H]([C@H](OC(=O)c3ccccc3)[C@]3(O)C[C@H](OC(=O)[C@H](O)[C@@H](NC(=O)c4ccccc4)c4ccccc4)C(C)=C1C3(C)C)[C@]1(OC(C)=O)CO[C@@H]1C[C@@H]2O [PACLITAXEL]
pIC50 [2]: 5.80
pIC50 [6]: 5.54

SMILES: CC(C)(C)OC(=O)N1CCN(C(=S)SC(C[N+](=O)[O-])c2ccccc2)CC1 (stereo not drawn)
pIC50 [1]: 4.50
pIC50 [2]: 4.72
Activity [4]: 0%
Activity [5]: 0%
pIC50 [6]: 4.53
Activity [7]: 0%

SMILES: CC(C)(C)OC(=O)N1C[C@@H]2C[C@H]1CN2C(=S)SC(C[N+](=O)[O-])c1ccc(C(F)(F)F)cc1 (stereo partly drawn)
Activity [1]: Dose-dependent effect
pIC50 [1]: 5.21
pIC50 [2]: 5.14
Activity [3]: Dose-dependent effect
Activity [4]: 20%
Activity [5]: 0%
Activity [6]: Dose-dependent effect
pIC50 [6]: 5.21
Activity [7]: 5%

Further lines, with some results ahead:

pIC50 [1]: 5.25
SMILES: CC(C)(C)OC(=O)N1C[C@@H]2C[C@H]1CN2C(=S)SC(C[N+](=O)[O-])c1ccc(Cl)cc1 (stereo partly drawn)
Activity [1]: Dose-dependent effect
pIC50 [2]: 5.62
Activity [3]: Dose-dependent effect
Activity [4]: 15%
Activity [5]: 12%
Activity [6]: Dose-dependent effect
pIC50 [6]: 5.14
Activity [7]: 4%

pIC50 [1]: 5.28
SMILES: COc1ccc(C(C[N+](=O)[O-])SC(=S)N2C[C@@H]3C[C@H]2CN3C(=O)OC(C)(C)C)cc1 (stereo partly drawn)
Activity [1]: Dose-dependent effect
pIC50 [2]: 5.58
Activity [3]: Dose-dependent effect
Activity [4]: 0%
Activity [5]: 5%
Activity [6]: Dose-dependent effect
pIC50 [6]: 5.21
Activity [7]: 0%

pIC50 [1]: 5.10
SMILES: CC(C)(C)OC(=O)N1C[C@@H]2C[C@H]1CN2C(=S)SC(C[N+](=O)[O-])c1ccc(F)cc1 (stereo partly drawn)
Activity [1]: Dose-dependent effect
pIC50 [2]: 5.18
Activity [3]: Dose-dependent effect
Activity [4]: 5%
Activity [5]: 8%
Activity [6]: Dose-dependent effect
pIC50 [6]: 5.17
Activity [7]: 2%

pIC50 [1]: 5.26
SMILES: Cc1ccc(C(C[N+](=O)[O-])SC(=S)N2C[C@@H]3C[C@H]2CN3C(=O)OC(C)(C)C)cc1 (stereo partly drawn)
Activity [1]: Dose-dependent effect
pIC50 [2]: 5.50
Activity [3]: Dose-dependent effect
Activity [4]: 2%
Activity [5]: 5%
Activity [6]: Dose-dependent effect
pIC50 [6]: 5.23
Activity [7]: 0%
